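Interpolation was linear, between the two tested concentrations surrounding the appropriate level; five concentrations were tested over 48 hours in 96-well plates. The concentration for 50% growth inhibition is given as GI50.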 Activity calls are given as the source filed them. Rule as the data show it: active = GI50 up to about 1.1 µM and inactive = higher.
Experiments:
Test in all cases: NCI anticancer screen, dose series, 48 h
[1] = tested on: EKVX
[2] = tested on: HCT-116
[3] = tested on: A498
[4] = tested on: SK-OV-3
[5] = tested on: COLO 205
[6] = tested on: A549
[7] = tested on: U-251
[8] = tested on: OVCAR-8
[9] = tested on: NCI-H522
[10] = tested on: RPMI-8226
[11] = tested on: HT-29
[12] = tested on: TK-10
[13] = tested on: SK-MEL-5
[14] = tested on: HCT-15
[15] = tested on: OVCAR-4
[16] = tested on: CAKI-1
[17] = tested on: SN12C

Structure (SMILES) | GI50 [1] | GI50 [2] | GI50 [3] | GI50 [4] | GI50 [5] | GI50 [6] | GI50 [7] | GI50 [8] | GI50 [9] | GI50 [10] | GI50 [11] | GI50 [12] | GI50 [13] | GI50 [14] [µM] | GI50 [15] | GI50 [16] | GI50 [17]
O=C1/C(=C/c2cccc([N+](=O)[O-])c2)COc2ccc(Br)cc21 | > 100 µM (inactive) | 32.6 µM (inactive) | > 100 µM (inactive) | > 100 µM (inactive) | > 100 µM (inactive) | > 100 µM (inactive) | > 100 µM (inactive) | > 100 µM (inactive) | 55 µM (inactive) | 2.24 µM (inactive) | 58.6 µM (inactive) | > 100 µM (inactive) | > 100 µM (inactive) |  |  |  | 
O=C(Cc1cc[n+]([O-])cc1)C(=O)Nc1cc(Cl)c(Cl)cc1Cl | > 100 µM (inactive) | > 100 µM (inactive) | > 100 µM (inactive) | > 100 µM (inactive) | > 100 µM (inactive) | > 100 µM (inactive) | > 100 µM (inactive) | > 100 µM (inactive) | > 100 µM (inactive) | > 100 µM (inactive) |  | > 100 µM (inactive) | > 100 µM (inactive) | > 100 | > 100 µM (inactive) |  | 
O=C(Nc1cccs1)c1c(O)[nH]c(=S)[nH]c1=O |  |  | > 100 µM (inactive) | > 100 µM (inactive) | > 100 µM (inactive) | > 100 µM (inactive) | > 100 µM (inactive) | > 100 µM (inactive) | > 100 µM (inactive) | > 100 µM (inactive) |  | > 100 µM (inactive) | > 100 µM (inactive) | > 100 | > 100 µM (inactive) | > 100 µM (inactive) | > 100 µM (inactive)
CCCNC1=C(C(=O)OCC)C(=O)CO1 | > 100 µM (inactive) | > 100 µM (inactive) | > 100 µM (inactive) |  |  | > 100 µM (inactive) | > 100 µM (inactive) | > 100 µM (inactive) |  | > 100 µM (inactive) | > 100 µM (inactive) | > 100 µM (inactive) | > 100 µM (inactive) | > 100 | > 100 µM (inactive) | > 100 µM (inactive) | > 100 µM (inactive)
CCOC(=O)c1ccn2c(c1)c(C#N)c1nc3ccccc3nc12 | 70.6 µM (inactive) | 46.8 µM (inactive) | 85.5 µM (inactive) | 55.1 µM (inactive) | 48.2 µM (inactive) | 50.1 µM (inactive) | 76.7 µM (inactive) | 32.1 µM (inactive) | 45.3 µM (inactive) | 43.6 µM (inactive) |  | 75.9 µM (inactive) | 35.6 µM (inactive) | 41.6 | 91 µM (inactive) | 54.5 µM (inactive) | 83.8 µM (inactive)
Cc1ccc(C(=O)C(C)N)cc1C (stereo unspecified) | > 100 µM (inactive) | > 100 µM (inactive) | > 100 µM (inactive) | > 100 µM (inactive) | > 100 µM (inactive) | > 100 µM (inactive) | > 100 µM (inactive) | > 100 µM (inactive) | > 100 µM (inactive) | > 100 µM (inactive) | > 100 µM (inactive) | > 100 µM (inactive) | > 100 µM (inactive) |  | > 100 µM (inactive) | > 100 µM (inactive) | > 100 µM (inactive)
CC(=O)OC1CC2C(C)(C)C(=O)C=C[C@]2(C)C2CCC3(C)C(=CC(=O)C3c3ccoc3)[C@]12C (stereo partly specified) | 15.7 µM (inactive) | 11.6 µM (inactive) | 16.9 µM (inactive) | 20.7 µM (inactive) | 16.9 µM (inactive) | 15.1 µM (inactive) |  | 16.7 µM (inactive) |  | 14.9 µM (inactive) | 13.5 µM (inactive) | 15.7 µM (inactive) | 13.1 µM (inactive) | 11.7 | 18.4 µM (inactive) | 24.7 µM (inactive) | 16.7 µM (inactive)
COCC1N=C(c2cc(OC)c(OC)c(OC)c2-c2cc3c(cc2[C@H](C)O)OCO3)O[C@H]1c1ccccc1 (stereo partly specified) | > 100 µM (inactive) | 44.6 µM (inactive) |  | > 100 µM (inactive) | 30.1 µM (inactive) | 56.8 µM (inactive) | 65.2 µM (inactive) | 81.5 µM (inactive) |  | 31 µM (inactive) | 76.2 µM (inactive) | > 100 µM (inactive) | 42.4 µM (inactive) | 56.9 | 33.5 µM (inactive) |  | 46.5 µM (inactive)
C[C@]12CCC(=O)C=C1CC[C@@H]1[C@@H]2[C@@H](O)C[C@@]2(C)[C@H]1CC[C@]2(O)C(=O)COC(=O)CCC1CCCC1 [HYDROCORTISONE CYPIONATE] | > 100 µM (inactive) | > 100 µM (inactive) | > 100 µM (inactive) | 5.83 µM (inactive) | > 100 µM (inactive) | > 100 µM (inactive) | > 100 µM (inactive) | > 100 µM (inactive) | > 100 µM (inactive) |  | > 100 µM (inactive) | > 100 µM (inactive) | > 100 µM (inactive) | > 100 |  | 87.5 µM (inactive) | 0.693 µM (active)

Reference: ChEMBL document CHEMBL1201862, “PubChem BioAssay data set” (2004)
